Reference: publication PMC10518255, “A first-in-class pan-lysyl oxidase inhibitor impairs stromal remodeling and enhances gemcitabine response and survival in pancreatic cancer” (Nature Cancer, 2023)
Several values for one entry are separate records, joined by “and”; a condition that tells them apart may be missing. Identical values can stand only once.

Experiments:
[1] = Plasma stability; assay type: in vitro ADME; details: In vitro (human)
[2] = Hepatocyte stability; assay type: in vitro ADME; details: hepatocytes; In vitro (human)
[3] = system: human pancreatic cancer CAFs; experiment: 3D organotypic matrix contraction assay; assay type: cell-based; parameters: area of matrices: unit not given here; details: for area of matrices: single replicates
Description: High-purity rat tail collagen for 3D organotypic assays was acid extracted following previously published methodology. The 12-day organotypic assays were carried out as described previously. In brief, 2 × 10^5 KPC CAFs were embedded in 2.5 ml 1.5 mg ml^−1 rat tail collagen and allowed to remodel for 12 days in a six-well plate in DMEM supplemented with 10% FBS and 1% penicillin–streptomycin in 21% O2/5% CO2 (Extended Data Fig. 4a). For human pancreatic cancer CAFs, 3.45 × 10^5 cells were embedded into 1.25 ml 1.5 mg ml^−1 rat tail collagen and allowed to remodel for 12 days in a 12-well plate in IMDM supplemented with 4 mM glutamine and 10% FBS in 21% O2/5% CO2.
Extended Data Fig. 4 PXS-5505 inhibits collagen cross-linking by PDAC CAFs in vitro resulting in decreased cancer cell invasion. a. Schematic of organotypic matrix remodeling assay whereby CAFs are embedded into a 3D collagen matrix and growth media supplemented with or without PXS-5505 to inhibit lysyl oxidase family activity b. Chemical structures of lysyl oxidase family catalyzed hydroxyallysine or allysine residues and the subsequent divalent and trivalent bonds that are formed that can be quantified by mass spectrometry. c. Representative images of 3D organotypic matrix contraction by human pancreatic cancer CAFs at days 2, 6 and 12 in the absence (gray) and presence (pink) of PXS-5505 (30 µM). Scale bars = 5 mm. […] Data presented as mean values +/− SD. d. […] Data presented as mean values +/− SD. Relative fold expression of LOXL family members compared to LOX were determined by 2^–∆∆Ct approach. f. Schematic of cancer cell invasion in a 3D organotypic matrix assay whereby cancer cells are seeded to the surface of a remodeled collagen plug and placed at an air–liquid interface and allowed to invade into the remodeled matrix. […] Scale bars = 100 μm. g. […] Representative images of 3D organotypic matrix contraction assay at days 2, 6 and 12 of control (gray) and presence of PXS-5120 (blue) and PXS-5505 (pink). Scale bars = 5 mm. Comparison of measured area of matrices between control, PXS-5120 and PXS-5505 treatment groups (n = 3) over time. i. […] Representative images of invasion of KPC cancer cells into a contracted organotypic matrix as determined by H&E staining. […] Source data

[4] = system: collagen crosslinks (DHLNL, Pyr) in KPC CAF organotypic matrices; experiment: Collagen crosslink quantification by LC-MS in organotypic matrices; assay type: cell-based, mouse
Description: Fig. 3 PXS-5505 inhibition of CAF remodeling in vitro. a, Quantitative PCR with reverse transcription (qRT–PCR) showing in vitro comparison of KPC CAF relative expression of lysyl oxidase family members compared to KPC CCs from the same model (n = 3 biologically independent samples). Comparisons were determined by 2^–∆∆Ct approach. b, Representative images of 3D organotypic matrix contraction assay at days 2, 6 and 12 in the absence (gray) or presence (pink) of PXS-5505 (30 µM). Scale bars, 5 mm. Comparison of measured area of matrices between control and PXS-5505 treatment groups over time (n = 3 technical samples examined over three biologically independent samples). Data are mean ± s.d. c, Concentration of immature divalent DHLNL and mature trivalent Pyr collagen crosslinks determined by LC–MS from control and PXS-5505-treated organotypic matrices at day 12 ([…]). Data are mean ± s.d. […] Data are presented as mean ± s.d. […] Comparison of number of CCs invaded per field of view (FOV) as determined by H&E and PanCK staining (nine images taken from three technical samples from each of three biologically independent contracted matrices), normalized to control. Data are mean ± s.d. Scale bars, 100 μm. […] Source data
KPC CAFs embedded in 3D organotypic matrices remodel and crosslink them.
Collagen matrices were freeze dried and reduced with NaBH4. The resulting pellet was hydrolyzed with 6 mol l^−1 HCl at 100 °C for 24 h. An automated solid phase extraction system (Gilson GX-271 ASPECA system) was used to extract hydroxyproline and crosslinks from the hydrolysate. The samples were analyzed for hydroxyproline crosslinks by a UHPLC–ESI–MS/MS on a Thermo Dionex UPHPLC and TSQ Endura triple quadmass spectrometer as previously published. The lower limit of detection was 0.013 pmol 10 µl^−1.

[5] = LC/MS, organotypic matrices at day 12, single replicates (3 biological x 2 technical)
[6] = day 12, normalized to total collagen content

## Cl.Cl.NC/C=C(\F)CS(=O)(=O)c1cccc2cccnc12.O [PXS-5505, (Z)-3-fluoro-4-(quinolin-8-ylsulfonyl)but-2-en-1-amine dihydrochloride monohydrate]
[1]
  remaining at 1 h: 97%
[2]
  remaining at 1 h: 90%
[3]; human pancreatic cancer CAFs, PXS-5505 30 µM
  matrix contraction: no effect on CAF ability to contract matrices
[3]; time 0
  area of matrices: 3.834
[3]; time 6
  area of matrices: 3 and 2.954 and 2.863 and 2.88 and 3.193 (2×) and 3.06 and 3.1 and 3.113
[3]; time 10
  area of matrices: 2.446 and 2.524 and 2.482 and 2.6253 and 2.773 and 2.7357 and 2.554 (2×) and 2.298
[3]; time 12
  area of matrices: 2.093 and 2.049 and 2.109 and 2.548 and 2.951 and 2.912 and 2.791 (2×) and 2.892
[4]; [5]
  Concentration of immature divalent dihyroxylysinonorleucine (DHLNL) collagen cross-links: 2.81 pmol/mL and 3.555 pmol/mL and 2.615 pmol/mL and 4.105 pmol/mL and 3.075 pmol/mL and 4.4 pmol/mL
  Concentration of mature trivalent hydroxylysylpyridinoline (Pyr, PYD) collagen cross-links: 4.5 pmol/mL and 5.52 pmol/mL and 3.85 pmol/mL and 8.4 pmol/mL and 6.325 pmol/mL and 6.2 pmol/mL
[4]; [6]
  immature divalent DHLNL collagen crosslinks: decreases
  mature trivalent Pyr collagen crosslinks: decreases
